Where two headings read alike, the source gives them in different places.

This passage reports inhibition results from patent publication US6620828B2, “Thiazole compounds and pharmaceutical compositions for inhibiting protein kinases and methods for their use” (Agouron Pharmaceuticals, Inc., priority 1999, dated 2003).

This test concerns human umbilical vein endothelial cells (HUVEC). Nature of the test: HUVEC proliferation assay. Type of test: cell-based. As to conditions: Homo sapiens, HUVEC; for inhibition at 0.001 µM: 1 nM; for inhibition at 0.01 µM: 10 nM; for inhibition at 0.15 µM: Table I screening results, 150 nM; for inhibition at 0.05 µM: 50 nM. The method, boiled down: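 Readout was MTT dye reduction (A595) after 72 h of stimulation with VEGF at 6 ng/ml final. Compound, in 0.1% DMSO final, was added 1 h before VEGF to HUVEC starved 24 h in 1% FBS. % inhibition was scaled between VEGF-alone and unstimulated wells; IC50 was fitted from triplicate dose curves.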

Where [1] appears, read: table following Table II (untitled), crude combinatorial library.
[2] abbreviates: table following Table II (untitled), crude combinatorial library, read-out: % inhibition @ 10 nM.
Where [3] appears, read: Table II screening results, crude combinatorial amide library.
[4] abbreviates: Table II screening results, crude combinatorial amide library, read-out: % inhibition @ 10 nM.
Where [5] appears, read: crude combinatorial amide library.
Where [6] appears, read: Inhibition of HUVEC Proliferation, crude combinatorial urea library, read-out: Inhibition @ 50 nM.
[7] abbreviates: Inhibition of HUVEC Proliferation, crude combinatorial urea library, read-out: % inhibition @ 50 nM.
[8] abbreviates: crude combinatorial urea library, read-out: Inhibition of HUVEC Proliferation % inhibition @ 10 nM.
The mark [9] stands for this setting: crude combinatorial urea library, read-out: Inhibition of HUVEC Proliferation % inhibition @ 50 nM.

Regarding `COc1cc(Nc2nc(N)c(-c3nc(-c4cc(NC(=O)[C@H]5CC(=O)NC(=O)N5)ccc4C)no3)s2)cc(OC)c1OC`, under setting [1], the inhibition at 0.001 µM turned out to be 25%. Under setting [2], the inhibition at 0.01 µM was found to be 2%.
Regarding `CNC(=O)Nc1nc(N)c(-c2nc(-c3cccc(NC(=O)c4cc(C)cc(=O)o4)c3)cs2)s1`, the inhibition at 0.001 µM under setting [3] amounted to 5%. Further, under setting [4], the inhibition at 0.01 µM stood at 62%.
As to `COc1cc(Nc2nc(N)c(-c3nc(-c4cccc(NC(=O)CCCc5ccccc5)c4)cs3)s2)cc(OC)c1OC`, under setting [5], the inhibition at 0.15 µM was determined as 15%.
Regarding `COc1cccc(C(=O)Nc2cc(-c3noc(-c4sc(NC(=O)NCCCCCCN(C)C)nc4N)n3)c(F)cc2F)c1`, under setting [6], the inhibition at 0.05 µM is -6%.
`COc1ccccc1/C=C\C(=O)Nc1cccc(-c2csc(-c3sc(Nc4cc(OC)c(OC)c(OC)c4)nc3N)n2)c1`: the inhibition at 0.15 µM under setting [5] worked out at 53%.
For the compound `COc1cc(Nc2nc(N)c(-c3nc(-c4cc(NC(=O)[C@@H](OC)c5ccccc5)ccc4C)no3)s2)cc(OC)c1OC`, the inhibition at 0.001 µM under setting [1] is -11%. The inhibition at 0.01 µM under setting [2] came to 63%.
For `COc1cccc(C(=O)Nc2cc(-c3noc(-c4sc(NC(=O)NCCc5cccnc5)nc4N)n3)c(F)cc2F)c1`, under setting [6], the inhibition at 0.05 µM is 38%.
Take `COc1cccc(C(=O)Nc2cc(-c3csc(-c4sc(NC(=O)NC(CO)CO)nc4N)n3)c(F)cc2F)c1`: the inhibition at 0.05 µM under setting [7] is 76%.
For the compound `COc1cc(Nc2nc(N)c(-c3nc(-c4cc(NC(=O)CCCN(C)C)ccc4C)no3)s2)cc(OC)c1OC`, under setting [1], the inhibition at 0.001 µM is 5%. The inhibition at 0.01 µM under setting [2] was 16%.
Regarding `COc1cc(Nc2nc(N)c(-c3nc(-c4cccc(NC(=O)/C(=C/c5ccccc5)c5ccccc5)c4)cs3)s2)cc(OC)c1OC`, the inhibition at 0.15 µM under setting [5] was found to be 3%.
For the compound `CNC(=O)Nc1nc(N)c(-c2nc(-c3cccc(NC(=O)/C=C/c4ccccc4OC)c3)cs2)s1`, under setting [3], the inhibition at 0.001 µM is -34%. The inhibition at 0.01 µM under setting [4] came to 46%.
Take `COc1cc(Nc2nc(N)c(-c3nc(-c4cccc(NC(=O)CNC(=O)c5ccccc5)c4)cs3)s2)cc(OC)c1OC`: the inhibition at 0.15 µM under setting [5] is -26%.
Consider `COc1cccc(C(=O)Nc2cccc(-c3csc(-c4sc(NC(=O)NCCCCN(C)C)nc4N)n3)c2)c1`, for which the inhibition at 0.01 µM under setting [8] was -2%. Further, the inhibition at 0.05 µM under setting [9] was found to be 71%.
Take `COc1cccc(C(=O)Nc2cc(-c3csc(-c4sc(NC(=O)NCCCN5CCCCCC5)nc4N)n3)c(F)cc2F)c1`: under setting [7], the inhibition at 0.05 µM is 86%.
On to `COc1cc(Nc2nc(N)c(-c3nc(-c4cc(NC(=O)[C@H]5CCCN5C(C)=O)ccc4C)no3)s2)cc(OC)c1OC`, for which the inhibition at 0.001 µM under setting [1] was -44%. The inhibition at 0.01 µM under setting [2] is -3%.
For the compound `CNC(=O)Nc1nc(N)c(-c2nc(-c3cccc(NC(=O)CCN4CCCCC4)c3)cs2)s1`, the inhibition at 0.001 µM under setting [3] worked out at 1%. The inhibition at 0.01 µM under setting [4] was -26%.
Take `CNC(=O)Nc1nc(N)c(-c2nc(-c3cccc(NC(=O)C4CC5C=CC4CC5)c3)cs2)s1` (centres unmarked): the inhibition at 0.001 µM under setting [3] came to 54%. Under setting [4], the inhibition at 0.01 µM came out at 45%.
With `COc1cc(Nc2nc(N)c(-c3nc(-c4cccc(NC(=O)c5nn(-c6ccccc6)nc5C)c4)cs3)s2)cc(OC)c1OC`, the inhibition at 0.15 µM under setting [5] is 0%.
As for `COc1cc(Nc2nc(N)c(-c3nc(-c4cccc(NC(=O)c5ccc(SC)cc5)c4)cs3)s2)cc(OC)c1OC`, the inhibition at 0.15 µM under setting [5] is 31%.
For `COc1cccc(C(=O)Nc2cc(-c3csc(-c4sc(NC(=O)NCCCCN(C)C)nc4N)n3)c(F)cc2F)c1`, the inhibition at 0.05 µM under setting [7] worked out at 30%.
Regarding `COc1cc(Nc2nc(N)c(-c3nc(-c4cc(NC(=O)C5CC[C@H]6C=C[C@@H]5C6)ccc4C)no3)s2)cc(OC)c1OC` (some centres unmarked), under setting [1], the inhibition at 0.001 µM is -2%. Moreover, the inhibition at 0.01 µM under setting [2] worked out at 33%.
As to `COc1cccc(C(=O)Nc2cc(-c3csc(-c4sc(NC(=O)NCCCN(CCO)CCO)nc4N)n3)c(F)cc2F)c1`, under setting [7], the inhibition at 0.05 µM came to 51%.
As to `COc1cc(Nc2nc(N)c(-c3nc(-c4cccc(NC(=O)Cc5cc(C)ccc5C)c4)cs3)s2)cc(OC)c1OC`, the inhibition at 0.15 µM under setting [5] was found to be 12%.
The same measure, in the same setting: the result for `COc1cc(Nc2nc(N)c(-c3nc(-c4cccc(NC(=O)c5ccc(C)s5)c4)cs3)s2)cc(OC)c1OC` [drawing 916] reads 32%.
As to `COc1cc(Nc2nc(N)c(-c3nc(-c4cccc(NC(=O)c5ccc(C(=O)C(F)(F)F)cc5)c4)cs3)s2)cc(OC)c1OC`, the inhibition at 0.15 µM under setting [5] is 26%.
Turning to `CCNc1ccccc1C(=O)Nc1cccc(-c2csc(-c3sc(NC(=O)NC)nc3N)n2)c1`, under setting [3], the inhibition at 0.001 µM is -1%. Also, under setting [4], the inhibition at 0.01 µM stood at 29%.
Regarding `COc1cccc(C(=O)Nc2cccc(-c3csc(-c4sc(NC(=O)NCCCN(CCO)CCO)nc4N)n3)c2)c1`, the inhibition at 0.01 µM under setting [8] was 2%. Also, under setting [9], the inhibition at 0.05 µM came out at 65%.
For `COc1cc(Nc2nc(N)c(-c3nc(-c4cccc(NC(=O)[C@@H]5C[C@H]5c5ccccc5)c4)cs3)s2)cc(OC)c1OC`, under setting [5], the inhibition at 0.15 µM is -4%.
The same measure, in the same setting: the result for `COc1cc(Nc2nc(N)c(-c3nc(-c4cccc(NC(=O)c5cc(C)cc(C)c5)c4)cs3)s2)cc(OC)c1OC` reads 78%.
In the case of `COc1cccc(C(=O)Nc2cccc(-c3csc(-c4sc(NC(=O)NCC(C)(C)CN(C)C)nc4N)n3)c2)c1`, the inhibition at 0.01 µM under setting [8] is -25%. Under setting [9], the inhibition at 0.05 µM turned out to be 36%.
Regarding `CNC(=O)Nc1nc(N)c(-c2nc(-c3cccc(NC(=O)CCc4ccc(C)cc4)c3)cs2)s1`, the inhibition at 0.001 µM under setting [3] amounted to 2%.
Turning to `COc1cccc(C(=O)Nc2cc(-c3csc(-c4sc(NC(=O)NCC(C)(C)CN(C)C)nc4N)n3)c(F)cc2F)c1`, the inhibition at 0.05 µM under setting [7] was 75%.
For `COc1cc(Nc2nc(N)c(-c3nc(-c4cccc(NC(=O)C(C)(C)C)c4)cs3)s2)cc(OC)c1OC`, the inhibition at 0.15 µM under setting [5] worked out at 7%.
With `COc1cc(Nc2nc(N)c(-c3nc(-c4cccc(NC(=O)C5CCCC5)c4)cs3)s2)cc(OC)c1OC`, under setting [5], the inhibition at 0.15 µM stood at 12%.
For `COc1cccc(C(=O)Nc2cc(-c3csc(-c4sc(NC(=O)NCC(C)C)nc4N)n3)c(F)cc2F)c1`, under setting [7], the inhibition at 0.05 µM was 38%.
`COc1cc(Nc2nc(N)c(-c3nc(-c4cccc(NC(=O)c5ccc(N(C)C)cc5)c4)cs3)s2)cc(OC)c1OC`: the inhibition at 0.15 µM under setting [5] amounted to 0%.
Turning to `CCO/C(C)=C/C(=O)Nc1ccc(C)c(-c2noc(-c3sc(Nc4cc(OC)c(OC)c(OC)c4)nc3N)n2)c1`, the inhibition at 0.001 µM under setting [1] turned out to be 21%. In addition, under setting [2], the inhibition at 0.01 µM came out at 78%.
`COc1cccc(C(=O)Nc2cc(-c3csc(-c4sc(NC(=O)NCCN5CCCCC5)nc4N)n3)c(F)cc2F)c1`: the inhibition at 0.05 µM under setting [7] was determined as 74%.
With `COc1cccc(C(=O)Nc2cccc(-c3csc(-c4sc(NC(=O)NCCCN(C)c5ccccc5)nc4N)n3)c2)c1`, the inhibition at 0.01 µM under setting [8] was 17%. The inhibition at 0.05 µM under setting [9] is 98%.
Take `COc1cc(Nc2nc(N)c(-c3nc(-c4cccc(NC(=O)Cc5cccc(C)c5)c4)cs3)s2)cc(OC)c1OC`: the inhibition at 0.15 µM under setting [5] was 75%.
In the case of `COc1cc(Nc2nc(N)c(-c3nc(-c4cccc(NC(=O)CC56CC7CC8CC(C5)C8(C7)C6)c4)cs3)s2)cc(OC)c1OC` (centres unmarked), the inhibition at 0.15 µM under setting [5] is 8%.
As to `COCC(C)NC(=O)Nc1nc(N)c(-c2nc(-c3cc(NC(=O)c4cccc(OC)c4)c(F)cc3F)no2)s1` (centres unmarked), the inhibition at 0.05 µM under setting [6] is 80%.
On to `CNC(=O)Nc1nc(N)c(-c2nc(-c3cccc(NC(=O)c4cccc(OC)c4)c3)cs2)s1` [drawing 1034], for which the inhibition at 0.001 µM under setting [3] worked out at 2%. Also, the inhibition at 0.01 µM under setting [4] turned out to be 91%.
`CCN(CC)CCNC(=O)Nc1nc(N)c(-c2nc(-c3cccc(NC(=O)c4cccc(OC)c4)c3)cs2)s1`: under setting [8], the inhibition at 0.01 µM is -38%. Also, under setting [9], the inhibition at 0.05 µM is 39%.
As for `COc1cc(Nc2nc(N)c(-c3nc(-c4cccc(NC(=O)c5ccc6ccccc6c5)c4)cs3)s2)cc(OC)c1OC`, under setting [5], the inhibition at 0.15 µM stood at 53%.
In the case of `CNC(=O)Nc1nc(N)c(-c2nc(-c3cccc(NC(=O)C4CC4C)c3)cs2)s1` (centres unmarked), the inhibition at 0.001 µM under setting [3] is -12%. In addition, under setting [4], the inhibition at 0.01 µM was 0%.
With `CNC(=O)Nc1nc(N)c(-c2nc(-c3cccc(NC(=O)Cc4cc(F)ccc4F)c3)cs2)s1`, the inhibition at 0.001 µM under setting [3] is -1%. Also, the inhibition at 0.01 µM under setting [4] came out at 4%.
As for `COc1cccc(C(=O)Nc2cc(-c3csc(-c4sc(NC(=O)NCCCN(C)c5ccccc5)nc4N)n3)c(F)cc2F)c1`, the inhibition at 0.05 µM under setting [7] was determined as 45%.
As to `COc1cccc(C(=O)Nc2cc(-c3csc(-c4sc(NC(=O)NCCC(C)C)nc4N)n3)c(F)cc2F)c1`, under setting [7], the inhibition at 0.05 µM came to 55%.
For the compound `COc1cccc(C(=O)Nc2cccc(-c3csc(-c4sc(NC(=O)NCC(O)CO)nc4N)n3)c2)c1` (centres unmarked), under setting [8], the inhibition at 0.01 µM was -3%. Under setting [9], the inhibition at 0.05 µM was 42%.
Take `COc1cc(Nc2nc(N)c(-c3nc(-c4cccc(NC(=O)C(Cc5ccccc5)c5ccccc5)c4)cs3)s2)cc(OC)c1OC` (centres unmarked): the inhibition at 0.15 µM under setting [5] is 11%.
For the compound `COc1cc(Nc2nc(N)c(-c3nc(-c4cc(NC(=O)[C@H]5CCC[C@H]5O)ccc4C)no3)s2)cc(OC)c1OC`, under setting [1], the inhibition at 0.001 µM was 45%. The inhibition at 0.01 µM under setting [2] was determined as 9%.
In the case of `COc1cccc(C(=O)Nc2cc(-c3csc(-c4sc(NC(=O)NCC(=O)O)nc4N)n3)c(F)cc2F)c1`, the inhibition at 0.05 µM under setting [7] came to 23%.
Take `COc1cccc(C(=O)Nc2cccc(-c3csc(-c4sc(NC(=O)NCCN(C)C)nc4N)n3)c2)c1`: the inhibition at 0.01 µM under setting [8] was -11%. Further, the inhibition at 0.05 µM under setting [9] came out at 46%.
`CCN1CC(NC(=O)Nc2nc(N)c(-c3nc(-c4cc(NC(=O)c5cccc(OC)c5)c(F)cc4F)no3)s2)CN1CC`: under setting [6], the inhibition at 0.05 µM stood at 92%.
